Laboratory results: PubChem BioAssay (NCI)
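Here, GI50 denotes the concentration required for 50% inhibition of growth. TGI denotes the concentration required for complete inhibition of growth.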

Assays:
Assay in all cases: NCI-60 cell line screen, 384-well format
SR leukemia = tested on: SR leukemia
OVCAR-4 ovarian = tested on: OVCAR-4 ovarian
LOX IMVI melanoma = tested on: LOX IMVI melanoma
HCT-116 colon = tested on: HCT-116 colon
OVCAR-5 ovarian = tested on: OVCAR-5 ovarian
COLO 205 colon = tested on: COLO 205 colon
PC-3 prostate = tested on: PC-3 prostate
SF-268 CNS = tested on: SF-268 CNS
CAKI-1 renal = tested on: CAKI-1 renal
HCT-15 colon = tested on: HCT-15 colon
UO-31 renal = tested on: UO-31 renal
NCI-H226 lung = tested on: NCI-H226 lung
M14 melanoma = tested on: M14 melanoma
SNB-19 CNS = tested on: SNB-19 CNS
HCC-2998 colon = tested on: HCC-2998 colon
RPMI-8226 leukemia = tested on: RPMI-8226 leukemia
MALME-3M melanoma = tested on: MALME-3M melanoma
NCI-H322M lung = tested on: NCI-H322M lung
SF-539 CNS = tested on: SF-539 CNS
HT29 colon = tested on: HT29 colon
U251 glioblastoma = tested on: U251 glioblastoma
MCF7 breast = tested on: MCF7 breast
OVCAR-3 ovarian = tested on: OVCAR-3 ovarian
SK-MEL-28 melanoma = tested on: SK-MEL-28 melanoma
UACC-257 melanoma = tested on: UACC-257 melanoma
DU-145 prostate = tested on: DU-145 prostate
KM12 colon = tested on: KM12 colon
UACC-62 melanoma = tested on: UACC-62 melanoma
HOP-92 NSCLC = tested on: HOP-92 NSCLC
SK-MEL-2 melanoma = tested on: SK-MEL-2 melanoma
OVCAR-8 ovarian = tested on: OVCAR-8 ovarian
MDA-MB-231 breast = tested on: MDA-MB-231 breast
ACHN renal = tested on: ACHN renal
MDA-MB-435 melanoma = tested on: MDA-MB-435 melanoma
MOLT-4 leukemia = tested on: MOLT-4 leukemia
A498 renal = tested on: A498 renal
SK-OV-3 ovarian = tested on: SK-OV-3 ovarian
786-0 renal = tested on: 786-0 renal
HOP-62 NSCLC = tested on: HOP-62 NSCLC
T-47D breast = tested on: T-47D breast
NCI-H460 NSCLC = tested on: NCI-H460 NSCLC
NCI/ADR-RES ovarian = tested on: NCI/ADR-RES ovarian
SN12C renal = tested on: SN12C renal
A549 NSCLC = tested on: A549 NSCLC
SW-620 colon = tested on: SW-620 colon
K-562 leukemia = tested on: K-562 leukemia
IGROV1 ovarian = tested on: IGROV1 ovarian
NCI-H522 lung = tested on: NCI-H522 lung
TK-10 renal = tested on: TK-10 renal
MDA-MB-468 breast = tested on: MDA-MB-468 breast
NCI-H23 lung = tested on: NCI-H23 lung
SK-MEL-5 melanoma = tested on: SK-MEL-5 melanoma
CCRF-CEM leukemia = tested on: CCRF-CEM leukemia
BT-549 breast = tested on: BT-549 breast
SF-295 CNS = tested on: SF-295 CNS
HL-60(TB) leukemia = tested on: HL-60(TB) leukemia
RXF 393 renal = tested on: RXF 393 renal

C#CCN(c1ccc(C(=O)N[C@@H](CCC(=O)N[C@H](CCC(=O)O)C(=O)O)C(=O)O)cc1)C1CCc2cc3nc(CO)[nH]c(=O)c3cc21 (some centres undefined)
GI50 (SR leukemia): 1.9 µM | TGI (SR leukemia): 3.38 µM | GI50 (OVCAR-4 ovarian): > 100 µM | TGI (OVCAR-4 ovarian): > 100 µM | GI50 (LOX IMVI melanoma): 5.03 µM | TGI (LOX IMVI melanoma): > 100 µM | GI50 (HCT-116 colon): 4.57 µM | TGI (HCT-116 colon): > 100 µM | GI50 (OVCAR-5 ovarian): > 100 µM | TGI (OVCAR-5 ovarian): > 100 µM | GI50 (COLO 205 colon): 7.84 µM | TGI (COLO 205 colon): > 100 µM | GI50 (PC-3 prostate): 9.44 µM | TGI (PC-3 prostate): > 100 µM | GI50 (SF-268 CNS): 4.09 µM | TGI (SF-268 CNS): 27.5 µM | GI50 (CAKI-1 renal): 8.9 µM | TGI (CAKI-1 renal): > 100 µM | GI50 (HCT-15 colon): 5.2 µM | TGI (HCT-15 colon): > 100 µM | GI50 (UO-31 renal): 4.46 µM | TGI (UO-31 renal): 62.4 µM | GI50 (NCI-H226 lung): 35.4 µM | TGI (NCI-H226 lung): > 100 µM | GI50 (M14 melanoma): 8.69 µM | TGI (M14 melanoma): > 100 µM | GI50 (SNB-19 CNS): 5.96 µM | TGI (SNB-19 CNS): > 100 µM | GI50 (HCC-2998 colon): 0.386 µM | TGI (HCC-2998 colon): 3.96 µM | GI50 (RPMI-8226 leukemia): 2 µM | TGI (RPMI-8226 leukemia): 4.03 µM | GI50 (MALME-3M melanoma): > 100 µM | TGI (MALME-3M melanoma): > 100 µM | GI50 (NCI-H322M lung): > 100 µM | TGI (NCI-H322M lung): > 100 µM | GI50 (SF-539 CNS): 4.67 µM | TGI (SF-539 CNS): > 100 µM | GI50 (HT29 colon): 5.23 µM | TGI (HT29 colon): > 100 µM | GI50 (U251 glioblastoma): 68.9 µM | TGI (U251 glioblastoma): > 100 µM | GI50 (MCF7 breast): 0.8 µM | TGI (MCF7 breast): > 100 µM | GI50 (OVCAR-3 ovarian): 9.01 µM | TGI (OVCAR-3 ovarian): > 100 µM | GI50 (SK-MEL-28 melanoma): 5.13 µM | TGI (SK-MEL-28 melanoma): > 100 µM | GI50 (UACC-257 melanoma): > 100 µM | TGI (UACC-257 melanoma): > 100 µM | GI50 (DU-145 prostate): 3.49 µM | TGI (DU-145 prostate): 20.3 µM | GI50 (KM12 colon): > 100 µM | TGI (KM12 colon): > 100 µM | GI50 (UACC-62 melanoma): 64.6 µM | TGI (UACC-62 melanoma): > 100 µM | GI50 (HOP-92 NSCLC): 13.3 µM | TGI (HOP-92 NSCLC): > 100 µM | GI50 (SK-MEL-2 melanoma): 99.9 µM | TGI (SK-MEL-2 melanoma): > 100 µM | GI50 (OVCAR-8 ovarian): 4.54 µM | TGI (OVCAR-8 ovarian): > 100 µM | GI50 (MDA-MB-231 breast): > 100 µM | TGI (MDA-MB-231 breast): > 100 µM | GI50 (ACHN renal): 4.25 µM | TGI (ACHN renal): > 100 µM | GI50 (MDA-MB-435 melanoma): > 100 µM | TGI (MDA-MB-435 melanoma): > 100 µM | GI50 (MOLT-4 leukemia): 2.67 µM | TGI (MOLT-4 leukemia): 5.52 µM | GI50 (A498 renal): 5.06 µM | TGI (A498 renal): > 100 µM | GI50 (SK-OV-3 ovarian): 43.2 µM | TGI (SK-OV-3 ovarian): > 100 µM | GI50 ([…]-0 renal): 3.69 µM | TGI (786-0 renal): 31.1 µM | GI50 (HOP-62 NSCLC): 10.5 µM | TGI (HOP-62 NSCLC): 45.8 µM | GI50 (T-47D breast): > 100 µM | TGI (T-47D breast): > 100 µM | GI50 (NCI-H460 NSCLC): 5.02 µM | TGI (NCI-H460 NSCLC): > 100 µM | GI50 (NCI/ADR-RES ovarian): 3.18 µM | TGI (NCI/ADR-RES ovarian): 8.45 µM | GI50 (SN12C renal): 3.75 µM | TGI (SN12C renal): 46.9 µM | GI50 (A549 NSCLC): 5.94 µM | TGI (A549 NSCLC): > 100 µM | GI50 (SW-620 colon): 9 µM | TGI (SW-620 colon): > 100 µM | GI50 (K-562 leukemia): 7.67 µM | TGI (K-562 leukemia): > 100 µM | GI50 (IGROV1 ovarian): 60.3 µM | TGI (IGROV1 ovarian): > 100 µM | GI50 (NCI-H522 lung): 3.04 µM | TGI (NCI-H522 lung): 7.83 µM | GI50 (TK-10 renal): 6.69 µM | TGI (TK-10 renal): > 100 µM | GI50 (MDA-MB-468 breast): 3.72 µM | TGI (MDA-MB-468 breast): 8.76 µM | GI50 (NCI-H23 lung): 21.9 µM | TGI (NCI-H23 lung): 57.3 µM | GI50 (SK-MEL-5 melanoma): 11.6 µM | TGI (SK-MEL-5 melanoma): > 100 µM | GI50 (CCRF-CEM leukemia): 1.97 µM | TGI (CCRF-CEM leukemia): 4.68 µM | GI50 (BT-549 breast): 6.68 µM | TGI (BT-549 breast): > 100 µM | GI50 (SF-295 CNS): 2.76 µM | TGI (SF-295 CNS): 7 µM | GI50 (HL-60(TB) leukemia): 3.02 µM | TGI (HL-60(TB) leukemia): 7.56 µM | GI50 (RXF 393 renal): 8.09 µM | TGI (RXF 393 renal): 71.9 µM
